Assay results from patent US20050153872A1, “Methods and compositions for the treatment of infection” (priority 2004, published 2005).

What was measured:
[1] = tested on: Staphylococcus aureus MRSA BAA-42; assay: microbe, parasite or virus in culture; format: cell-based; settings: Staphylococcus aureus MRSA BAA-42
[2] = tested on: Enterococcus faecalis ATCC 700802; assay: microbe, parasite or virus in culture; format: cell-based; settings: Enterococcus faecalis, ATCC700802
[3] = tested on: ATCC 700671 PRSP (S. pneumoniae); assay: In vivo protection effects of Ph-SP; design: species or system mice; settings: 5 animals
Method: To assess the in vivo effect of Ph-SP, mice were injected with ATCC 700671 PRSP intraperitoneally, followed by intravenous injections of PH-SP or controls.
One hour after administration of the fatal dose of ATCC 700671 PRSP (10^5 CFU/ml), each mouse was injected through the tail vein with test agents at three dosages as described in Table 4.

ATCC 700802 VRE cells = assay: Ph-EF protection of ATCC 700802 infected mice; format: in vivo; settings: 5 animals
Method: To assess in vivo effects of Ph-EF, mice were injected with a fatal dosage of ATCC 700802 VRE cells intraperitoneally. […] Mice were inspected every 24 hours for 7-14 days. Dead mice would be counted as positive results.

[4] = tested on: Enterococcus faecalis ATCC 700802; assay: In vivo protection of infected mice; design: species or system Kungming mice; settings: mice, i.p. infection 8.0 × 10^6 cfu/ml
Method: (§1) The following experiments were performed by Pharmacology Lab, National Sichuan antibiotic industril institute, Chengdu, Sichuan.
(§2) The agents described above were diluted with sterilized water to final concentrations of 10 mg/L, 5 mg/Land 2.5 mg/L.
(§3) Staphylococcus aureus ATCC BAA-42(MRSA) and enterococcus faecalis ATCC 700802 were used as control strains.
(§4) 170 mice (Kungming mice: 18˜22 g, 85 males and 85 females) were randomly divided into four groups and injected with a fatal dosage of staphylococci, enterococcus and E. coli intraperitoneally. […] Mice were inspected every 24 hours for 7-14 days. Dead mice were counted as positive results. The results are depicted in Table 3 and FIGS. 4 and 5A-B.

[5] = tested on: Staphylococcus aureus MRSA BAA-42; assay: In vivo protection of infected mice; design: species or system Kungming mice; settings: mice, i.p. infection 5.5 × 10^5 cfu/ml
Method: as §1, §2, §3, §4

[6] = tested on: Staphylococcus aureus MRSA 02-18; assay: In vivo protection of infected mice; design: species or system Kungming mice; settings: mice, i.p. infection 1.7 × 10^5 cfu/ml
Method: as §1, §2, §3, §4

[7] = tested on: S. pneumoniae ATCC 700671 (Penicillin-resistant SP); settings: 5 ug/ml
[8] = tested on: Staphylococcus aureus MRSA 02-18; assay: microbe, parasite or virus in culture; format: cell-based; settings: Staphylococcus aureus MRSA 02-18
Escherichia coli 02-1-65 [9] = assay: MIC against challenge strain (Table 3); format: cell-based
[10] = tested on: Staphylococcus aureus MRSA strain (80); assay: In vitro antibacterial activity (MIC), clinical isolates; format: cell-based; settings: 80 MRSA clinical isolates
Summary of the method: (§5)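 Clinical isolates collected in Sichuan and Beijing in 2002, identified with the API system, were exposed to test compound to determine MIC50, MIC90 and MIC range. S. aureus ATCC25923, 29213 and BAA-42 served as control strains.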

Enterococcus (20) = assay: as above; format: cell-based; settings: 20 Enterococcus clinical isolates
Summary of the method: as §5

[11] = tested on: Staphylococcus aureus MSSA strain (88); assay: as above; format: cell-based; settings: 88 MSSA clinical isolates
Summary of the method: as §5

[12] = tested on: Staphylococcus epidermidis MSSE strain (21); assay: as above; format: cell-based; settings: 21 MSSE clinical isolates
Summary of the method: as §5

[13] = tested on: Staphylococcus aureus ATCC 29213; assay: MIC against challenge strain (Table 3); format: cell-based
[14] = tested on: vancomycin-sensitive Enterococcus ATCC29212; settings: 3 ug/ml; ATCC 29212 cells
[15] = tested on: Staphylococcus aureus ATCC 29213; assay: In vivo protection of infected mice; design: species or system Kungming mice; settings: i.p. infection 3.6 × 10^5 cfu/ml
Method: as §1
(§6) The agents described above were diluted with sterilized water to final concentrations of 10 mg/L, 5 mg/Land 2.5 mg/L. […]
as §4

Escherichia coli 02-1-65 [16] = assay: In vivo protection of infected mice; design: species or system Kungming mice; settings: i.p. infection 3.3 × 10^5 cfu/ml
Method: as §1, §6, §4

[17] = tested on: S. pneumoniae BQIOC 31201 (non-resistant); settings: 5 ug/ml; S. pneumoniae BQIOC 31201
MRSA strain ATCC BAA-42 = assay: Electron micrographs of bactericidal effects; format: cell-based, S. aureus; settings: Ph-SA 50 μg/ml 0.5 hrs; wild type colicin Ia 50 μg/ml 2 hrs; AgrDI 10 μg/ml 2 hrs
Source text: Electron Micrographs of Bactericidal Effects of Ph-SA1 Against ATCC BAA-42 MRSA Strain Cells (1% Phosphotungstic Acid. 25,000×)

[18] = 1st Time, i.v. treatment after one hour
[19] = 2nd Time (value in parentheses), i.v. treatment

## sodium penicillin
[1]
  MIC: 8 µg/mL
[2]
  MIC: 2 µg/mL
[3]; 5 mg/kg tail vein
  Death distribution in hours 24 h: 3
  Death distribution in hours 48 h: 0
  Death distribution in hours 72 h: 0
  Death distribution in hours 96 h: 0
  Death distribution in hours 120 h: 0
  Death distribution in hours 144 h: 0
  Death distribution in hours 168 h: 0
  Number of Death: 3
[3]; 10 mg/kg tail vein
  Death distribution in hours 24 h: 3
  Death distribution in hours 48 h: 0
  Death distribution in hours 72 h: 0
  Death distribution in hours 96 h: 0
  Death distribution in hours 120 h: 0
  Death distribution in hours 144 h: 0
  Death distribution in hours 168 h: 0
  Number of Death: 3
ATCC 700802 VRE cells; 5 mg/kg intravenously
  Death distribution in hours 24 h: 0
  Death distribution in hours 48 h: 1
  Death distribution in hours 72 h: 1
  Death distribution in hours 96 h: 1
  Death distribution in hours 120 h: 0
  Death distribution in hours 144 h: 0
  Death distribution in hours 168 h: 0
  Number of Death: 3
ATCC 700802 VRE cells; 10 mg/kg intravenously
  Death distribution in hours 24 h: 0
  Death distribution in hours 48 h: 0
  Death distribution in hours 72 h: 0
  Death distribution in hours 96 h: 0
  Death distribution in hours 120 h: 0
  Death distribution in hours 144 h: 0
  Death distribution in hours 168 h: 0
  Number of Death: 0
[4]; [18]
  ED50: 3.16 mg/kg
[4]; [19]
  ED50: (3.08) mg/kg
[5]; [18]
  ED50: >10 mg/kg
[5]; [19]
  ED50: (14.71) mg/kg
[6]; [18]
  ED50: 7.28 mg/kg
[6]; [19]
  ED50: (11.33) mg/kg
[7]
  inhibition of cell growth: did not have a growth inhibitory effect
[8]
  MIC: >16 µg/mL
Escherichia coli 02-1-65 [9]
  MIC: >128 µg/mL
[10]
  MIC Scope: 1˜128 mg/l
Enterococcus (20)
  MIC50: 32 µg/mL
  MIC90: 64 µg/mL
[11]
  MIC50: 8 µg/mL
  MIC90: 64 µg/mL
[12]
  MIC50: 4 µg/mL
  MIC90: 32 µg/mL
  MIC Scope: 0.125˜128 mg/l
[13]
  MIC: 16 µg/mL
[14]
  inhibition of cell growth: inhibited cell growth
[15]; [18]
  ED50: 10.75 mg/kg
[15]; [19]
  ED50: (9.84) mg/kg
Escherichia coli 02-1-65 [16]; [18]
  ED50: >30.77 mg/kg
Escherichia coli 02-1-65 [16]; [19]
  ED50: (>30.77) mg/kg

B1: wild type colicin Ia: wild type colicin Ia, channel forming polypeptide without targeting agent (protein)
chain: MSDPVARGITNPGAESLGYDSDGHEIMAVASPIYVASNPPRVASPVFHGTPPAWSSFGNKTIWGGNEWVASPDSPTRSDIEKRDKEITAYKNTLSAQQKENENKRTEAGKRLSAAIAAREKDENTLKTLRAGNADAADITRQEFRLLQAELREYGFRTEIAGYDALRLHTESRMLFADADSLRISPREARSLIEQAEKRQKDAQNADKKAADMLAEYERRKGILDTRLSELEKNGGAALAVLDAQQARLLGQQTRNDRAISEARNKLSSVTESLNTARNALTRAEQQLTQQKNTPDGKTIVSPEKFPGRSSTNHSIVVSGDPRFAGTIKITTSAVIDNRANLNYLLSHSGLDYKRNILNDRNPVVTEDVEGDKKIYNAEVALAEWDKLRQRLLDARNKITSAESAVASNSARNNLSARTNEQKHANDALNALLKEKENIRNQLSGINQKIAEEKRKQDELKATKDAINFTTEFLKSVSEKYGAKAEQLAREMAGQAKGKKIRNVEEALKTYEKYRADINKKINAKDRAAIAAALESVKLSDISSNLNRFSRGLGYAGKFTSLADWITEFGKAVARGTENWRPLFVKTETIIAGNAATALVALALVFSILTGSALGIIGYGLLMAVTGALIDESLVEKANKFWGI
modifications: E. coli
notes: wild type colicin Ia, channel forming polypeptide without targeting agent
[17]
  inhibition of cell growth: did not inhibit growth
MRSA strain ATCC BAA-42
  bactericidal effect / effect on cell growth (electron micrographs): no effect on cell growth
[14]
  inhibition of cell growth: failed to inhibit growth
